The subject of this test is Escherichia coli isolate A. Put plainly: Same-sample filtration AST, replicate treated and concurrent reference conditions (Example 3), isolate A. The test is classed as cell-based. Particulars: 1 μg/mL ETP, 60 minutes 37° C. The protocol: Isolate A was susceptible to ertapenem, while isolate B was resistant. The inoculum was small enough that no detectable difference in the sample's optical density at 600 mm (OD600) was detectable before and after inoculation by an Ultrospec 10 spectrophotometer with an analytical sensitivity of 0.01 absorbance units. After an incubation at 37° C., the media became turbid with an OD600 of 0.5 absorbance units after about 2 hours of incubation.
To begin the AST protocol, 23.75 μL of the above 8 bacteria batch culture dilutions was twice added to and mixed with 1.25 μL of water containing either 20 μg/mL or 0 μg/mL of dissolved ertapenem (ETP) antibiotic. As a result, […] at 1 μg/mL were created, and 8 untreated reference conditions were created (see Table 2 below). The […] were incubated at 37° C. for 60 minutes.
After 60 minutes of incubation, the entire volume of each antibiotic exposure was transferred to an individual cellulose acetate filter unit with a 0.2 μm pore size. […]
50 μL of fresh MHB media was spun through the filters after the first centrifugation (above) to wash away residual extracellular nucleic acids present in the fluid wetting the filters. […] In this experiment, the wash fluid was collected and analyzed to learn more about the protocol, but this washing step is not necessary for determining susceptibility of the isolate. […]

In the case of `C[C@@H](O)[C@H]1C(=O)N2C(C(=O)O)=C(S[C@@H]3CN[C@H](C(=O)Nc4cccc(C(=O)O)c4)C3)[C@H](C)[C@H]12` [ETP, ertapenem], the “susceptibility call (threshold: reference mean + 2 SD of fraction extracellular)” value (alternative analysis) was “susceptible”. The “susceptibility call (t-test treated vs untreated percent extracellular)” value (ddPCR 23S rRNA) is given as “susceptible”.
